Measured values: patent US5736523A, “Antineoplastic heteronapthoquinones” (Biochem Pharma Inc., priority 1995, dated 1998)
Read-outs that look alike come from different tables or passages of the source.

Tests used:
[1] = Med. Res. Rev. 1981; cited from earlier work
[2] = Med. Res. Rev. 1981; cited from earlier work; remark: listed apart in the source
MCF-7 = experiment: In vitro antitumor activity, MCF-7; format: cell-based
Procedure: (§1) The microculture tetrazolium assay was used to test in vitro cytotoxicity. This assay is described in Plumb, J. A. et al., 1989 Cancer Research 49, 4435-4440, which is herein incorporated by reference. The cytotoxicity of compounds towards tumor cells is measured in vitro using the assay. This assay method is based upon the ability of live, but not dead cells to reduce the yellow water soluble dye 3-(4;5-dimethylthiazol-2-yl)-2,5-diphenyltetrazolium bromide (MTT) to its water insoluble purple formazan product.
(§2) The plate layout is done in the following manner: The assays are carried out in 96-well (8 well×12 well) microtiter plates. Serial dilutions of the compound are tested along the length of the plate. A 1:3 serial dilution of compound in culture medium covers a concentration range from 100 μM to 1.7 nM. Each concentration of compound is tested in quadruplet, allowing two compounds to be tested per plate. Wells containing no cells (blank) and cells with no test compound (control) are included on each plate.
(§3) Cells are plated out in 100 μl of culture medium in the microtiter plates at a density of around 1,500-4,000 cells per well. […] The plates are shaken briefly and the absorbance at 570 nm is read using a Molecular Devices UV max plate reader. […]

[3] = tested on: HT 29 (Colon adenocarcinoma); experiment: In vitro cytotoxicity, microculture tetrazolium (MTT) assay, HT 29; format: cell-based, human; conditions: read-out: IC50
Procedure: (§4) In Vitro Cytotoxicity--Microculture Tetrazolium Assay
as §1
(§5) Human Tumor Cell lines, used were:
HT 29 (Colon adenocarcinoma) ATCC catalog #HTB-38.
(§6) The cells were maintained in exponential growth in culture in minimal essential media (MEM) supplemented with non-essential amino acids, and containing 15% (v/v) fetal bovine serum, 5 mM L-glutamine, 1 mM sodium pyruvate, and 0.1 U/ml insulin. All cell lines were grown at 37° C. in an atmosphere of 5% CO2 in air.
(§7) Test compounds: 20 mM in DMSO and diluted to a final concentration of 200 μM in culture medium before use.
(§8) The following is the generic description of the assay method. It should be noted that although the conditions described work well with the cells listed above, the initial plating density and the MTT concentration used should be verified for each new cell line used to test compounds.
(§9) For each assay, doxorubicin is included as an inter-assay standard. This allows us to monitor the behaviour of the assay in general, and in particular, to check that the SKVLB line has maintained its resistant phenotype.
as §2
(§10) Cells are plated out in 100 μl of culture medium in the microtiter plates at a density of around 1,500-4,000 cells per well. The plates are incubated overnight to allow the cells to become adherent after which the test compound is added (100 μl of appropriate dilution per well). The cells are incubated with test compound at 37° C. for 48 h after which the compound is replaced with fresh medium. After a further 48 h incubation at 37° C., 50 μl of MTT solution (2 mg/ml) is added to each well. The plates are incubated in the dark for 4 h at 37° C. after which the medium is removed. The MTT formazan product is extracted from the cells by the addition of 200 μl DMSO followed by 50 μl of Sorensen's buffer. The plates are shaken briefly and the absorbance at 570 nm is read using a Molecular Devices UV max plate reader. Curves are fit to the MTT assay data using a four parameter logistic equation, and the data are normalized to fit a 0% to 100% survival scale.

[4] = tested on: SKVLB (Ovarian; multidrug resistant); experiment: In vitro cytotoxicity, microculture tetrazolium (MTT) assay, SKVLB; format: cell-based, human; conditions: for IC50: SKVLB, multidrug resistant, read-out: IC50; for VLB/OV3: ratio SKVLB / SKOV3
Outline: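 Multidrug-resistant ovarian SKVLB cells exposed 48 h at 37 °C to 1:3 serial dilutions (100 μM–1.7 nM), then 48 h in fresh medium. MTT reduction read at 570 nm after DMSO extraction; four-parameter logistic fit normalized to 0–100% survival.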

[5] = tested on: T47D (Ductal carcinoma of breast); experiment: In vitro cytotoxicity, microculture tetrazolium (MTT) assay, T47D; format: cell-based, human; conditions: read-out: IC50
Procedure: as §4, §1, §5
T47D (Ductal carcinoma of breast)--ATCC catalog #HTB-133.
as §6, §7, §8, §9, §2, §10

Lox (Melanoma) = experiment: In vitro cytotoxicity, microculture tetrazolium (MTT) assay, Lox; format: cell-based, human; conditions: read-out: IC50
Procedure: as §4, §1, §5
Lox (Melanoma)--Southern Research Institute.
as §6, §7, §8, §9, §2, §10

MCF-7/ADR = experiment: In vitro antitumor activity, MCF-7/ADR (adriamycin resistant); format: cell-based
Procedure: as §1, §2, §3

MAT-B = experiment: In vitro antitumor activity, MAT-B; format: cell-based
Procedure: as §1, §2, §3

MAT-B/ADR = experiment: In vitro antitumor activity, MAT-B/ADR; format: cell-based
Procedure: as §1, §2, §3

[6] = tested on: SKOV3 (Ovarian adenocarcinoma); experiment: In vitro cytotoxicity, microculture tetrazolium (MTT) assay, SKOV3; format: cell-based, human; conditions: read-out: IC50
Procedure: as §4, §1, §5
SKOV3 (Ovarian adenocarcinoma)--provided by Dr. V. Ling,
as §6, §7, §8, §9, §2, §10

[7] = literature; cited from earlier work

For `C[C@H]1O[C@@H]2CC(=O)O[C@@H]2C2=C1C(=O)c1c(O)cccc1C2=O` [kalafungin], the antibacterial activity [1] is listed as “potent antibacterial” and the antifungal activity [2] is listed as “antifungal activity”.

With `CC(=O)[C@H]1CC2=C(C(=O)c3ccccc3C2=O)[C@H](OC2C[C@H](NC(=O)C(F)(F)F)[C@H](O)[C@H](C)O2)O1` (stereo partly drawn) [BCH1146, (1'S,1S,3R)-Methyl (5,10-dioxo-1-(2',3',6'-trideoxy-3'-trifluoroacetamido-4'-hydroxy-L-lyxohexopyranose)-3,4,5,10-tetrahydronaphtho [2,3-C]pyran-3-yl) ketone] the IC50 (MCF-7) was 0.044 µM, the “potency in breast cancer, MCF-7, against adriamycin” value (MCF-7; breast cancer) was “less potent than adriamycin” and the IC50 ([3]; HT29) was 0.91 µM. The IC50 [4] was 6.97 µM, the VLB/OV3 [4] was 7.82 and the IC50 [5] was 5.87 µM. The IC50 (Lox (Melanoma)) was 3.82 µM, the IC50 (MCF-7/ADR; MCF-7/ADR) was 0.19 µM and the “effectiveness in the sensitive and adriamycin resistant cell line” value (MCF-7/ADR; MCF-7 sensitive vs adriamycin resistant) was “nearly as effective in the sensitive and adriamycin resistant cell line”. The IC50 (MAT-B) was 0.46 µM, the IC50 (MAT-B/ADR) was 0.56 µM and the IC50 ([6]; SKOV3) was 0.891 µM.

For `CC1O[C@H]2CC(=O)O[C@H]2C2=C1C(=O)c1c(O)c3c(c(O)c1C2=O)[C@H]1C[C@@H](O)[C@]3(O)[C@@H](C)O1` (stereo partly drawn) [Granaticin], the antitumor activity [7] is listed as “show antitumor activity”.

In the case of `COC(=O)C1CC2=C(C(=O)c3c(cc4ccccc4c3O)C2=O)[C@@H](O[C@H]2C[C@H](NC(=O)C(F)(F)F)[C@H](O)[C@H](C)O2)O1` (stereo partly drawn) [pyranoanthraquinone (H)], the antitumor activity [7] is given as “possess antitumor activity”.

In the case of `C[C@@H]1O[C@@H](CC(=O)O)CC2=C1C(=O)c1c(O)cccc1C2=O` [nanaomycin A], the antibacterial activity [1] is listed as “potent antibacterial” and the antifungal activity [2] is listed as “antifungal activity”.

Compound `C=CC[C@@H]1CC2=C(C(=O)c3ccccc3C2=O)[C@@H](O[C@H]2C[C@H](NC(=O)C(F)(F)F)[C@H](O)[C@H](C)O2)O1` (mixture of isomers) [BCH2031, (1'S,1S,3S) and (1'S,1-R,3-R)-3-([2',3',6'-trideoxy-3'-trifluoroacetamido-4'-hydroxy-L-lyhohexopyranose]-5,10-dioxo-3,4,5,10-tetrahydronaphtho-[2,3-c]-pyran-3-yl)-propene] has an IC50 ([3]; Homo sapiens, HT-29, HT29) of 8.5 µM, an IC50 ([4]; Homo sapiens) of 18 µM and a VLB/OV3 [4] of 3. For the same compound, the IC50 ([5]; Homo sapiens) was 16 µM, the IC50 (Lox (Melanoma); Homo sapiens) was 2.8 µM and the IC50 ([6]; Homo sapiens, SK-OV-3, SKOV3) was 6 µM.
